The source of these data is US20220339257A1, “METHODS TO INCREASE THE SENSITIVITY AND REVERSING THE RESISTANCE TO DRUGS” (Biomarker Strategies, LLC, priority 2019, published 2022).

In this experiment the test system is Ca-922 cell line. Briefly: HoPI live cell staining. Details: concentration or dose not given beside the values. The following applies: 24 hours. Format: cell-based. From the text:
A double stain of Hoechst 33342 and propidium iodide allows for the determination of cell viability with high specificity and low background noise, as compared to trypan blue staining. Hoechst 33342 is a cell permeable blue fluorescent nuclear stain which will stain all cell types. Propidium iodide is a cell impermeable red fluorescent nuclear stain that will only bind to the nuclei of cells with compromised membranes (dead cells). The staining can be performed rapidly on live cell suspensions within 15 minutes. 25 uL of 4× Hoechst 33342 Solution (40 ug/mL) and 25 uL of 4×Propidium Iodide Solution are added to 50 uL of cell suspension. The suspension was gently mixed 10 times and 50 uL was immediately transferred to a microfluidic cell counting chip. A 365 nm LED was used to excite both Hoechst 33342 and propidium iodide. Images of the cells were captured using a 10× objective lens on an Olympus microscope using a Canon EOS 6D camera using an ISO of 800 and an exposure of 2 seconds; both JPEG and RAW images were saved for analysis. The blue channel was used to measure the total number of cells and the red channel was used to measure the number of dead cells. Cell counting was performed automatically by the Image Pro software (Media Cybernetics, Inc).
MTA and EM effects on apoptosis were measured by Hoechst-Propidium Iodide staining (HoPI). For the assay, cells were seeded in 6-well plates at 400K cells per well, in 2 mL of 10% FBS-containing media and incubated for 24 hours. At 24 hours, a 1 nM to […] range of MTA and/or 1 ng/mL to 1 mg/mL range of EM doses was added and incubated for 24 hours. After 24 hours incubation respective cells' media was collected, added the 1× HBSS wash from the plate in the respective tube. Adherent cells were detached by treating with Accutase for 6 minutes and collected in respective tubes. All samples were centrifuged for 5 minutes at 1200 RPM. The cell pellets were resuspended in PBS and centrifuged again for 5 minutes at 1200 RPM. Cell pellets were resuspended in 200 uL of PBS and mixed properly to get single cell suspension. 50 uL of cell suspension was added into separate tubes having 10 uL of a 2× HOPI solution (20 ug/mL Hoechst 33342 and 20 ug/mL propidium iodide solution) to get a final concentration of Hoechst 33342 and propidium iodide to […]. Make up the volume to 100 uL with 40 uL of PBS. Samples were mixed thoroughly for even cell staining and the microfluidsic chip wells were each filled with 10 uL of sample. Chips were then incubated in the dark for 20 minutes. A 365 nm LED was used to excite both Hoechst 33342 and propidium iodide as they were visualize under a microscope. Cell images were captured using a 10× objective lens on an Olympus microscope using a Canon EOS 6D camera with an ISO of 800 and an exposure of 2 seconds; both JPEG and RAW images were saved for analysis. The blue channel was used to measure the total number of cells and the red channel was used to measure the number of dead cells. For image analysis, a copy of the image was created and converted directly into an 8-bit gray scale image. A threshold was placed on the image to create a binary mask; the threshold level was 20 intensity units out of 255 intensity units. Next, a particle analysis algorithm was applied to the binary mask and a set of cellular regions (between 100 to 800 cellular regions per image) was created. The original image was then split into red, green and blue channels. The area, mean intensity, standard deviation of the mean intensity, minimum intensity, maximum intensity and perimeter were measured for each cellular region in the red channel and also in the blue channel. The green channel was discarded. To discern between live and dead cells, the maximum intensity in the red channel was used with a threshold of 100 intensity units. Double plots were created using the intensity of the blue channel (X-axis) and the intensity of the red channel (Y-axis). […]

Regarding tumor necrosis factor-alpha [EM2], the “reduction in the number of live cells (HoPI)” value runs as follows: (osimertinib and TNFa in combination) 67%; (single agent) 21%.

B1: interferon-alpha-1 (protein, UniProt P01562 24-189, looked up)
Interferon alpha-1/13: CDLPETHSLDNRRTLMLLAQMSRISPSSCLMDRHDFGFPQEEFDGNQFQKAPAISVLHELIQQIFNLFTTKDSSAAWDEDLLDKFCTELYQQLNDLEACVMQEERVGETPLMNADSILAVKKYFRRITLYLTEKKYSPCAWEVVRAEIMRSLSLSTNLQERLRRKE
notes: enhancer molecule, cytokine purchased from Sigma
Turning to B1, the “reduction in the number of live cells (HoPI)” value by setting is: (GSK458 and IFNa in combination) 26%; (single agent) 24%.
